Like-named read-outs stand apart in the source and are kept apart here.

Results on 12 molecules are retold here after patent US20240150365A1 (Hotspot Therapeutics, Inc., priority 2022, published 2024).

For one test, the target named is T1, MALT1 (Homo sapiens, UniProt Q9UDY8).
T1 construct: Avi-tagged FL MALT-1 (Pharmaron, stored at −70° C.); Avi tag
T1 sequence (Q9UDY8 1-824): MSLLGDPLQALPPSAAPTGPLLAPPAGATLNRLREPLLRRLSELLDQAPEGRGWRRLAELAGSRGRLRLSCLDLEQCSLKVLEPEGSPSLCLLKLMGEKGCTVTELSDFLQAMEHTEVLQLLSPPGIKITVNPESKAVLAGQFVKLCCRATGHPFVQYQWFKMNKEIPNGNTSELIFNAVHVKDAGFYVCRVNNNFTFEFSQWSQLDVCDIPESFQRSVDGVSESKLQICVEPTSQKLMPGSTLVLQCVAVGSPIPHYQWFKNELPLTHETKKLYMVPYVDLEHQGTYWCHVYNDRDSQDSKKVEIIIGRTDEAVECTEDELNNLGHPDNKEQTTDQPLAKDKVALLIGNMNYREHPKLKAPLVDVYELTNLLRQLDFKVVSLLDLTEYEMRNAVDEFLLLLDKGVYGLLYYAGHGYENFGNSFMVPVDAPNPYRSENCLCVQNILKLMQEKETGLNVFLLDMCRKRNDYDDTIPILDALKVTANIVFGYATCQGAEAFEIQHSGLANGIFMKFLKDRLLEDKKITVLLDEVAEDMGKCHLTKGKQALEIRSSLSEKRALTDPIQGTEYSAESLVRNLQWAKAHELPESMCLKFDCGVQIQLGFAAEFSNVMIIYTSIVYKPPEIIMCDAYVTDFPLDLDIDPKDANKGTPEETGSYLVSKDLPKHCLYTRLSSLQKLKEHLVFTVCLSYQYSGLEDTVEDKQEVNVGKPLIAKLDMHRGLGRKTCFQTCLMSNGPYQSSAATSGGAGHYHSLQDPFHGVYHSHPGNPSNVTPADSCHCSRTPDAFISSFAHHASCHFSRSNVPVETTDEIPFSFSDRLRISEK
In words: MALT-1 Fluorogenic Peptide Cleavage Assay (MALT1 inhibition assay). Format: biochemical. The settings on record: Avi-tagged FL MALT-1, Ac-LRSR-AMC peptide substrate, 30 min pre-incubation, 90 min reaction. The procedure, abridged:
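Avi-tagged full-length MALT1 pre-incubated 30 min with compound (2% DMSO final), then cleavage of Ac-LRSR-AMC followed over 90 min at room temperature. AMC fluorescence read at 342/441 nm; % inhibition fitted to sigmoidal curves for IC50.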

Another test deals with NF-kB. Kind of test: NF-kB reporter assay in Jurkat cells stimulated with aCD3/aCD28/PMA. The conditions noted are these: Homo sapiens, Jurkat, read-out: NF-kB Reporter Assay IC50. The test is classed as cell-based. Put shortly:
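Jurkat cells (25,000/well, serum-free RPMI 1640) preincubated 1 hr at 37° C with serially diluted compound, then stimulated with aCD3/aCD28/PMA (final 5 μg/mL, 5 μg/mL, 0.03 μg/mL) for 4 hr. Reporter luminescence read with One-Glo; IC50 derived.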

The mark [1] stands for this setting: Jurkat cells, 1 hr compound incubation, aCD3/aCD28/PMA stimulation 4 hr, One-Glo readout.

For the molecule `Cn1ncc2cccc(NS(=O)(=O)c3ccc(N4CC(C)(C)OC4=O)nc3)c21` [Example I-224, 6-(5,5-Dimethyl-2-Oxooxazolidin-3-yl)-N-(1-Methyl-1H-Indazol-7-yl)Pyridine-3-Sulfonamide], the IC50 against MALT1 was greater than 2.5 µM; with NF-kB (setting [1]), less than 0.4 µM.
With `COc1ccc2cnn(C)c2c1NS(=O)(=O)c1ccc(N2CCN(C)C2=O)nc1` [Example I-225, N-(6-Methoxy-1-Methyl-1H-Indazol-7-yl)-6-(3-Methyl-2-Oxoimidazolidin-1-yl)Pyridine-3-Sulfonamide], the IC50 on MALT1 was 0.4 to 1 µM; in the test on NF-kB (setting [1]) it was less than 0.4 µM.
The like results for `CN1CCN(c2ccc(S(=O)(=O)Nc3cccc4cnn(C)c34)cn2)C1=O` [Example I-226, N-(1-Methyl-1H-Indazol-7-yl)-6-(3-Methyl-2-Oxoimidazolidin-1-yl)Pyridine-3-Sulfonamide] were, in that order, greater than 2.5 µM and less than 0.4 µM.
With `Cn1ncc2cccc(NS(=O)(=O)c3ccc(-n4ncc5c4CCCC5)nc3)c21` [Example I-227, N-(1-Methyl-1H-Indazol-7-yl)-6-(4,5,6,7-Tetrahydro-1H-Indazol-1-yl)Pyridine-3-Sulfonamide], the IC50 against MALT1 was 1 to 2.5 µM; in the test on NF-kB (setting [1]) it was less than 0.4 µM.
On to `Cn1cc(-c2ccc(S(=O)(=O)Nc3cccc4cnn(C)c34)cn2)nc1C(F)(F)F` [Example I-228, N-(1-Methyl-1H-Indazol-7-yl)-6-(1-Methyl-2-(Trifluoromethyl)-1H-Imidazol-4-yl)Pyridine-3-Sulfonamide], for which the 50% inhibitory concentration (IC50) against MALT1 is 1 to 2.5 µM; in the test on NF-kB (setting [1]), less than 0.4 µM.
On to `[2H]C([2H])([2H])n1ncc2ccc(OC)c(NS(=O)(=O)c3ccc(-n4cc(C5CC5)cn4)nc3)c21` [Example I-229, 6-(4-Cyclopropyl-1H-Pyrazol-1-yl)-N-(6-Methoxy-1-(Methyl-D3)-1H-Indazol-7-yl)Pyridine-3-Sulfonamide], for which the IC50 on MALT1 and in the test with NF-kB (setting [1]) was less than 0.4 µM throughout.
Turning to `Cn1ncc2cccc(NS(=O)(=O)c3ccc(N4CCOC4=O)nc3)c21` [Example I-230, N-(1-Methyl-1H-Indazol-7-yl)-6-(2-Oxooxazolidin-3-yl)Pyridine-3-Sulfonamide], the IC50 against MALT1 and in the test with NF-kB (setting [1]) was greater than 2.5 µM in each case.
Take `COCCn1ncc2cccc(NS(=O)(=O)c3ccc(-n4ccc(C5CC5)n4)nc3)c21` [Example I-231, 6-(3-Cyclopropyl-1H-Pyrazol-1-yl)-N-(1-(2-Methoxyethyl)-1H-Indazol-7-yl)Pyridine-3-Sulfonamide]: the 50% inhibitory concentration (IC50) against MALT1 and in the test on NF-kB (setting [1]) was greater than 2.5 µM each time.
As for `COCCn1ncc2cccc(NS(=O)(=O)c3ccc(-n4nccc4C(C)C)nc3)c21` [Example I-232, 6-(5-isopropyl-1H-pyrazol-1-yl)-N-(1-(2-methoxyethyl)-1H-indazol-7-yl)pyridine-3-sulfonamide], the IC50 on MALT1 and in the test with NF-kB (setting [1]) was greater than 2.5 µM each time.
Turning to `Cn1ncc2cccc(NS(=O)(=O)c3ccc(-n4cc5c(n4)CCCC5)nc3)c21` [Example I-233, N-(1-methyl-1H-indazol-7-yl)-6-(4,5,6,7-tetrahydro-2H-indazol-2-yl)pyridine-3-sulfonamide], the IC50 is 0.4 to 1 µM on MALT1 and less than 0.4 µM in the test on NF-kB (setting [1]).
As to `Cn1c(-c2ccc(S(=O)(=O)Nc3cccc4cnn(C)c34)cn2)cnc1C(F)(F)F` [Example I-234, 6-[3-methyl-2-(trifluoromethyl)imidazol-4-yl]-N-(1-methylindazol-7-yl)pyridine-3-sulfonamide], the half-maximal inhibitory concentration (IC50) at MALT1 is greater than 2.5 µM; in the test with NF-kB it was less than 0.4 µM.
As for `COc1ncc2cnn(C)c2c1NS(=O)(=O)c1ccc(N2C[C@@](O)(C(F)(F)F)CC2=O)nc1` [Example I-235, (R)-6-(4-hydroxy-2-oxo-4-(trifluoromethyl)pyrrolidin-1-yl)-N-(6-methoxy-1-methyl-1H-pyrazolo[4,3-c]pyridin-7-yl)pyridine-3-sulfonamide], the values for the IC50 on MALT1 and in the test on NF-kB (setting [1]) were less than 0.4 µM and 0.4 to 1 µM, respectively.
